Entries after “also recorded” stand apart in the source; their conditions may differ. Where two headings read alike, the source gives them in different places.
Columns and labels:
[1] = test system: intracellular NAD^+; settings: reported to date (Pandit et al. 2015; Shen et al. 2017); cited from earlier work
[2] = test system: NQO1 knockout mice; settings: day 18
Protocol: The day, on which the NQO1 knockout mice were hair-removed according to Example 1, was set as day 0, and the animals were divided into the following experimental groups and used for experiments: normal group (Control, 4 animals) in which only PBS is intraperitoneally injected on day 9; cyclophosphamide group (CYP, 6 animals) in which cyclophosphamide (150 mg/kg) is intraperitoneally injected on day 9; combination-treated group (CYP+Dunnione, 6 animals) in which dunnione is orally administered on a daily basis starting from 3 days prior to treatment with cyclophosphamide; and dunnione alone-treated group (Dunnione, 4 animals) in which only dunnione (20 mg/kg) is administered (FIG. 1).
The day, on which the NQO1 knockout mice were hair-removed according to Example 1, was set as day 0, and the mice in each of the experimental groups described in Example 3 were sacrificed on day 18. Subsequently, the mouse dorsal skin was dissected parallel or perpendicular to the vertebral line, and removed. The removed skin was fixed with a Bouin's solution for 12 hours, subjected to dehydration, and embedded in paraffin. Then, the resulting product was prepared into 5-μm sections. The prepared sections were subjected to hematoxylin and eosin (H&E) staining, and histological changes in the skin in each experimental group were observed.

[3] = test system: C57BL/6 mice having alopecia caused by cyclophosphamide; assay: Visual observation of skin in animal model having alopecia caused by cyclophosphamide; format: in vivo
Excerpt: In 9-week-old C57BL/6 mice, the hair on the dorsal skin area was first removed with an animal hair clipper, and then a depilatory ([…] cream, manufactured by Ildong Pharmaceutical Co., Ltd.) was applied to the dorsal skin to completely remove the hair.

[4] = test system: NF-κB p65; assay: Acetylation of NF-κB p65 in skin tissue (western blot), cyclophosphamide alopecia model; format: in vivo, mice; settings: cyclophosphamide plus dunnione; day 18
Protocol: In the cyclophosphamide-induced alopecia mouse model of Example 2, expression level of Sirt1 protein and acetylation reaction of the target proteins thereof, NF-κB p65 and p53, were identified on the skin tissue obtained on day 18 after hair removal.
Specifically, 10 mg of the skin tissue obtained from the animal model prepared by the method in Example 2 was homogenized by addition of a lysis solution (RIPA lysis buffer). Then, centrifugation was performed at 14,000 rpm for 10 minutes. The protein concentration in the supernatant was quantified with a bovine serum albumin (BSA) standard solution. The skin tissue protein was used in an amount of 40 μg per test solution. First, the homogenized skin tissue was mixed with a sample solution (Bio-Rad, 161-0747) and inactivated at a temperature of 95° C. for 5 minutes. Thereafter, the protein was separated by a sodium dodecyl sulfate-polyacrylamide gel electrophoresis (SDS-PAGE) method, and then transferred to a nitrocellulose membrane. Treatment with anti-Sirt1 antibody (Abcam), anti-acetyl NF-κB p65 antibody and anti-acetyl p53 antibody (Cell Signaling Technologies), and anti-β-actin antibody (Santa Cruz Biotechnology) as primary antibodies were performed, and reaction was allowed to proceed. […]

[5] = test system: NAD^+; assay: NAD+ and NADH concentrations and NAD+/NADH ratio in skin tissue, cyclophosphamide alopecia model; format: in vivo, mice; settings: cyclophosphamide plus dunnione vs cyclophosphamide
Protocol: Specifically, in order to quantify the NAD^+ and NADH concentrations in the skin tissue obtained from the animal model prepared by the method in Example 2, the skin tissue was tested with the analysis kit (E2ND-100) of BioAssay Systems according to the instruction manual, and then the NAD^+/NADH ratio was analyzed. First, 10 mg of skin tissue was collected from the animal model. Then, 100 μl of extraction solution for NAD^+ or NADH was added to the skin tissue and homogenized. Then, the homogenized skin tissue was subjected to heat treatment at 60° C. for 5 minutes. Neutralization was performed by addition of the same volume of the extraction solution, and then centrifugation was performed at 14,000 rpm for 5 minutes to obtain the supernatant. Then, a developing reagent was added to the supernatant. The NAD^+ and NADH concentrations were determined from the absorbance measured at a wavelength of 565 nm, and the NAD^+/NADH ratio was analyzed.

CC1OC2=C(C(=O)C(=O)c3ccccc32)C1(C)C (stereo not shown) [dunnione, 2,3-dihydro-2,3,3-trimethyl-naphtho[1,2-b]furan-4,5-dione]
intracellular NAD^+ [1]: increase | development of hair follicles and inner root sheaths (histology) ([2]; CYP+Dun combination-treated group): the hair follicles have poorly developed or the inner root sheaths have insufficiently developed; also recorded: falling-off of hair follicles and inner root sheaths in the skin tissue progresses | development of hair follicles and inner root sheaths (histology) ([2]; dunnione alone): the hair follicles and inner root sheaths have well developed overall | hair growth, visual observation of skin ([3]; CYP+Dunnione combination-treated group, day 18 after hair removal): hair grew overall so that the skin is full of hair and looks black | hair growth, visual observation of skin ([3]; CYP+Dunnione: cyclophosphamide 150 mg/kg i.p. day 9, dunnione oral daily from 3 days prior, day 14 after hair removal): began to grow more hair than the cyclophosphamide alone-treated group | hair loss ([3]; cyclophosphamide plus dunnione combination-treated group compared with cyclophosphamide alone-treated group): inhibited hair loss | hair growth, visual observation of skin ([3]; dunnione alone (20 mg/kg), day 18 after hair removal): hair grew overall so that the skin is full of hair and looks black | acetylation of NF-κB p65 in skin tissue [4]: suppresses | NAD^+/NADH ratio in skin tissue ([5]; day 18): increases | NAD^+ concentration in skin tissue ([5]; day 18 after hair removal): increases
